What all share (format): in vivo
For experiment [1], the system named is large milkweed bug (Oncopeltus fasciatus). The experiment can be described thus: Topical application to large milkweed bug. The settings on record: MWB, 24 hours after application. The method, then: (§1) The activity was evaluated in topical application to southern armyworm (Spodoptera eridania), Mexican bean beetle (Epilachna varivestis), large milkweed bug (Oncopeltus fasciatus), cabbage looper (Trichoplusia ni), and tobacco budworm (Heliothis virescens). Two replicates of 10 test larvae per replicate were placed in 9 cm petri dishes, each lined with a piece of filter paper and a food source. On the second or third dorsal thoracic segment of each larva was placed a 1 microliter droplet containing the desired amount of the test compound in acetone. The toxic effect of the compound was determined 24 hours after application. An insect was considered dead if it could no longer right itself and move in an oriented pattern.

Experiment [2] deals with Mexican bean beetle (Epilachna varivestis). Description: Foliar application, Mexican bean beetle mortality. Particulars: read-out: Mortality (% killed). As to the method: (§2) The compounds were also tested in foliar applications at various concentrations in aqueous solutions containing 10% acetone and 0.25% emulsifier. The plants (English fava bean for pea aphid and pinto bean for the remaining species) were placed on a revolving turntable in a hood, and the test solutions were applied with a sprayer. The test solutions were applied to the upper and lower surfaces of the plant leaves while the turntable revolved 10 times (5 for upper surface and 5 for lower surface). The total spray time was approximately one minute, and the leaves were covered to runoff. In every case the lowest rate was applied first and the highest rate last. The plants were then allowed to dry. The treated leaves were removed and placed in 240 ml or 480 ml wax treated containers. Ten individuals of the appropriate species were placed in each container and the container capped. Mortality was read 48 hours post-treatment unless otherwise noted. Two replicates of ten individuals were made at each rate. Foliar evaluation used southern armyworm (Spodoptera eridania), Mexican bean beetle (Epilachna varivestis), pea aphid (Acyrthosiphon pisum), and twospotted spider mite (Tetranychus urticae).

The subject of experiment [3] is pea aphid (Acyrthosiphon pisum). The experiment can be described thus: Foliar application, pea aphid mortality. The settings on record: read-out: Mortality (% killed); for mortality at 4 ppm / mortality at 32 ppm / mortality at 16 ppm: PA, foliar, 48 hours. The method, then: as §2
Experiment [4] concerns southern armyworm (Spodoptera eridania). Description: Topical application to southern armyworm larvae. The settings on record: SAW, 24 hours after application. The method, then:
as §1

Experiment [5] relates to twospotted spider mite (Tetranychus urticae). The experiment can be described thus: Foliar application, twospotted spider mite mortality. Particulars: read-out: Mortality (% killed). As to the method:
as §2

In experiment [6] the test system is cabbage looper (Trichoplusia ni). Description: Topical application to cabbage looper. Particulars: CL, 24 hours after application. The method, then:
as §1

The test system of experiment [7] is tobacco budworm (Heliothis virescens). Description: Topical application to tobacco budworm. The settings on record: TBW, 24 hours after application. The method, then:
as §1

In experiment [8] the test system is southern armyworm (Spodoptera eridania). Description: Foliar application, southern armyworm mortality. Particulars: read-out: Mortality (% killed). As to the method:
as §2

In experiment [9] the test system is Mexican bean beetle (Epilachna varivestis). The experiment can be described thus: Topical application to Mexican bean beetle. The settings on record: MBB, 24 hours after application. The method, then:
as §1

Structures are written as SMILES. Read-outs that look alike come from different tables or passages of the source.

With `CC1(C)[C@H](C(=O)OCc2cccc3c2CCCCc2ccccc2-3)[C@@H]1C=C(Cl)Cl` [Ex. VIII (1R,cis), (5,6,7,8-tetrahydrodibenzo[a,c]cycloocten-4-yl)methyl 1R,cis-3-(2,2-dichloroethenyl)-2,2-dimethylcyclopropanecarboxylate], the figures for the LD50 in [1] and in [4] were 460 ng/insect and 201 ng/insect, respectively. Moreover, the mortality at 4 ppm came to 50% in experiment [2] (MBB, foliar, 48 hours) and 0% in [3]. Besides, in experiment [5] (TSM, foliar, 48 hours), the mortality at 16 ppm is 14%.
In the case of `CC1(C)[C@H](C=C(Cl)Cl)[C@@H]1C(=O)OCc1cccc(-c2ccccc2)c1` (relative stereo) [Ref., [(1,1biphenyl)-3-yl]methyl cis3-(2,2-dichloroethenyl)-2,2-dimethylcyclopropanecarboxylate, reference compound], the LD50 stood at 620 ng/insect in [1]; 560 ng/insect in experiment [6]; 2330 ng/insect in experiment [7]; 27 ng/insect in experiment [4]; 18 ng/insect in experiment [9]. Moreover, the mortality at 32 ppm turned out to be 50% in experiment [2] (MBB, foliar, 48 hours) and 70% in experiment [3]. Besides, the mortality at 4 ppm in experiment [8] (SAW, foliar, 48 hours) was found to be 90%. Further, the mortality at 500 ppm in experiment [5] (TSM, foliar, 500 ppm, 48 hours) amounted to 33%.
Take `CC1(C)[C@H](C=C(Cl)Cl)[C@@H]1C(=O)OCc1cccc2c1CCc1ccccc1-2` (relative stereo) [Ex. I (cis), (9,10-dihydro-1-phenanthryl)methyl cis-3-(2,2-dichloroethenyl)-2,2-dimethylcyclopropanecarboxylate]: the LD50 in experiment [1] is listed as 176 ng/insect; in [6], 241 ng/insect; in experiment [7], 193 ng/insect; in experiment [4], 121 ng/insect; in experiment [9] it was 64 ng/insect. The mortality at 16 ppm came out at 30% in experiment [2] (MBB, foliar, 48 hours); 10% in experiment [8] (SAW, foliar, 48 hours); 55% in experiment [3]. Further, the mortality at 32 ppm was found to be 35% in [2] (MBB, foliar, 48 hours); 30% in experiment [8] (SAW, foliar, 32 ppm, 48 hours); 90% in [3]. The mortality at 80 ppm in experiment [2] (MBB, foliar, 80 ppm, 48 hours) amounted to 75%; in experiment [8] (SAW, foliar, 80 ppm, 48 hours) it was 80%.
Regarding `CC1(C)[C@H](C(=O)OCc2cccc3c2Cc2ccccc2-3)[C@@H]1C=C(Cl)Cl` (relative stereo) [Ex. V (cis), 9H-fluorene-1-methyl cis-3-(2,2-dichloroethenyl)-2,2-dimethylcyclopropanecarboxylate], the mortality at 64 ppm in [2] (48 h) is 0%; in experiment [8] (48 h), 0%; in [3] (48 h), 30%. Also, the results for the mortality at 500 ppm in [8] (48 h), in [3] (48 h) and in [5] (48 h) were 100%, 90% and 0%, respectively. The LD50 in experiment [4] was found to be 460 ng/insect; in experiment [9], 3320 ng/insect.
With `CC1(C)[C@@H](C=C(Cl)Cl)[C@@H]1C(=O)OCc1cccc2c1Cc1ccccc1-2` (relative stereo) [Ex. V (trans), 9H-fluorene-1-methyl trans-3-(2,2-dichloroethenyl)-2,2-dimethylcyclopropanecarboxylate], the figures for the mortality at 64 ppm in [2] (48 h), in experiment [8] (48 h) and in experiment [3] (48 h) were 15%, 0% and 20%, respectively. For the same compound, the mortality at 500 ppm in experiment [8] (48 h) is 25%; in [3] (48 h), 0%; in experiment [5] (48 h), 0%.
Consider `CC1(C)[C@H](C(=O)OCc2cccc3c2CCCc2ccccc2-3)[C@@H]1C=C(Cl)C(F)(F)F` (relative stereo) [Ex. IV (cis), (6,7-dihydro-5H-dibenzo[a,c]cyclohepten-4-yl)methyl cis-3-(2-chloro-3,3,3-trifluoromethyl-1-propenyl)-2,2-dimethylcyclopropanecarboxylate], for which the LD50 in experiment [1] worked out at 83 ng/insect; in experiment [6], 64 ng/insect; in experiment [7] it was 212 ng/insect; in experiment [4] it was 54 ng/insect; in [9], 4.26 ng/insect. In addition, the values for the mortality at 2.1 ppm in [2] (48 h) and in experiment [5] (48 h) were 100% and 4%, respectively. Also, the mortality at 10 ppm in experiment [8] (48 h) was 75%; in experiment [5] (48 h) it was 100%. In addition, the mortality at 0.25 ppm in experiment [3] (48 h) is 80%.
Turning to `CC1(C)[C@H](C(=O)OCc2cccc3c2Cc2ccccc2-3)[C@@H]1C=C(Cl)C(F)(F)F` (relative stereo) [Ex. VI (cis), 9H-fluorene-1-methyl cis-3-(2-chloro-3,3,3-trifluoromethyl-1-propenyl)-2,2-dimethylcyclopropanecarboxylate], the figures for the mortality at 64 ppm in experiment [2] (48 h), in experiment [8] (48 h) and in experiment [3] (48 h) were 0%, 95% and 50%, respectively. The mortality at 500 ppm in experiment [8] (48 h) stood at 100%; in [3] (48 h), 90%; in [5] (48 h) it was 0%. Moreover, the figures for the LD50 in experiment [4] and in [9] were 1160 ng/insect and 762 ng/insect, respectively.
Regarding `CC1(C)[C@@H](C=C(Cl)Cl)[C@@H]1C(=O)OCc1cccc2c1CCCc1ccccc1-2` (relative stereo) [Ex. III (trans), (6,7-dihydro-5H-dibenzo[a,c]cyclohepten-4-yl)methyl trans-3-(2,2-dichloroethenyl)-2,2-dimethylcyclopropanecarboxylate], the LD50 turned out to be 315 ng/insect in experiment [1]; 92 ng/insect in [6]; 355 ng/insect in experiment [7]; 95 ng/insect in experiment [4]; 50 ng/insect in [9]. Also, the mortality at 4 ppm in [2] (MBB, foliar, 48 hours) worked out at 20%; in [8] (SAW, foliar, 48 hours) it was 10%; in experiment [3], 80%. In addition, the mortality at 16 ppm in experiment [2] (MBB, foliar, 48 hours) is 55%; in [8] (SAW, foliar, 48 hours), 100%; in experiment [3], 90%.
Turning to `CC1(C)[C@H](C(=O)OCc2cccc3c2CCc2ccccc2-3)[C@@H]1C=C(Cl)C(F)(F)F` (relative stereo) [Ex. II (cis), (9,10-dihydro-1-phenanthryl)methyl cis-3-(2-chloro-3,3,3-trifluoromethyl-1-propenyl)-2,2-dimethylcyclopropanecarboxylate], the LD50 in [1] worked out at 170 ng/insect; in [6], 61 ng/insect; in experiment [7], 45 ng/insect; in experiment [4] it was 36 ng/insect; in experiment [9], 9.4 ng/insect. The mortality at 8 ppm in [2] (48 h) was found to be 90%; in experiment [8] (48 h), 30%. Moreover, the mortality at 32 ppm in [8] (48 h) came out at 95%; in experiment [5] (48 h) it was 78%. Besides, the mortality at 10 ppm in experiment [3] (48 h) stood at 85%.
On to `CC1(C)[C@H](C=C(Cl)C(F)(F)F)[C@@H]1C(=O)OCc1cccc2c1CCCCc1ccccc1-2` (relative stereo) [Ex. VII (cis), (5,6,7,8-tetrahydrodibenzo[a,c]cycloocten-4-yl)methyl cis-3-(2-chloro-3,3,3-trifluoropropenyl)-2,2-dimethylcyclopropanecarboxylate], for which the LD50 stood at 396 ng/insect in [1], 410 ng/insect in experiment [4] and 20.6 ng/insect in experiment [9]. In addition, the mortality at 4 ppm in [2] (MBB, foliar, 48 hours) was found to be 95%; in experiment [3], 0%. Moreover, the mortality at 16 ppm in [5] (TSM, foliar, 48 hours) is 24%.

The values are drawn from US4433182A, “Insecticidal 2,2'-bridged[1,1'-biphenyl]-3-ylmethyl esters” (FMC Corporation, priority 1981, dated 1984).
